From US20210121466A1, “COMBINATION THERAPY OF A CHIMERIC ANTIGEN RECEPTOR (CAR) T CELL THERAPY AND A KINASE INHIBITOR” (Juno Therapeutics, Inc., priority 2018, published 2021)

How the values were obtained:
[1] = system: anti-CD19 CAR T cells; assay: Cytolytic activity of anti-CD19 CAR T cells co-cultured with K562-CD19 target cells in the presence of ibrutinib (IncuCyte); format: cell-based, human
Text: (§1) To generate CAR-expressing T cells, T cells were isolated by immunoaffinity-based enrichment from three healthy human donor subjects, and cells from each donor were activated and transduced with a viral vector encoding an anti-CD19 CAR. The CAR contained an anti-CD19 scFv, an Ig-derived spacer, a human CD28-derived transmembrane domain, a human 4-1BB-derived intracellular signaling domain and a human CD3 zeta-derived signaling domain. The nucleic acid construct encoding the CAR also included a truncated EGFR (tEGFR) sequence for use as a transduction marker, separated from the CAR sequence by a self-cleaving T2A sequence.
(§2) CAR-expressing CD4+ and CD8+ cells were mixed 1:1 for each donor, individually, and the pooled cells for each donor assessed in vitro under various conditions.
The target cells were labeled with NucLight Red (NLR), to permit tracking of target cells by microscopy.

[2] = system: anti-CD19 CAR T cells; assay: Expression of CAR-T cell surface markers by flow cytometry after stimulation with irradiated K562-CD19 cells; format: cell-based, human
Text: as §1, §2
CAR-T cells generated as described above were plated at 100,000 cells/well on 96 well Poly-D-Lysine coated plates. Irradiated K562-CD19 target cells were added at an effector to target ratio of 2.5:1. […] Cells were harvested at 1, 2, 3, and 4 days, and were analyzed by flow cytometry for T cell activation and differentiation surface markers CD69, CD107a, PD-1, CD25, CD38, CD39, CD95, CD62L, CCR7, CD45RO and for truncated EGFR (a surrogate marker for CAR-transduced cells).

[3] = system: anti-CD19 CAR T cells; assay: Cytokine production in supernatants of CAR-T / K562-CD19 co-cultures (MSD); format: cell-based, human
Text: as §1, §2
CAR-T cells generated as described above were plated at 100,000 cells/well on 96 well Poly-D-Lysine coated plates to which irradiated target cells (K562-CD19) were added at an effector to target ratio of 2.5:1. […] Culture supernatants were harvested every 24 hrs at days 1, 2, 3 and 4, and IFNγ, IL-2, TNFα, IL-4 and IL-10 were measured from the culture supernatants using cytokine kits from Meso Scale Discovery (MSD).

[4] = system: anti-CD19 CAR T cells; assay: Serial restimulation assay of anti-CD19 CAR+ T cells with K562-CD19 target cells; format: cell-based, human; details: day 18; both concentrations (50, 500 nM); two of three donors
Text: as §1, §2
(§3) The ability of cells to expand ex vivo following repeated stimulations in some aspects can indicates capacity of CAR-T cells to persist (e.g., following initial activation) and/or is indicative of function and/or fitness in vivo (Zhao et al. (2015) Cancer Cell, 28:415-28). Anti-CD19 CAR+ T cells generated as described above were plated in triplicate at 100,000 cells/well on 96 well Poly-D-Lysine coated plates, and irradiated target cells (K562-CD19) were added at an effector to target ratio of 2.5:1. […] A total of 7 rounds of stimulation during a 25 day culture period were carried out.

[5] = system: anti-CD19 CAR T cells; assay: TH1 phenotype (CD4+CXCR3+CRTH2-) and activation/memory markers by flow cytometry during serial restimulation; format: cell-based, human
Method: as §3
A serial restimulation assay was performed as described above and cells were harvested at various times and analyzed by flow cytometry to assess percentage of TH1-phenotype (assessed as CD4+CXCR3+CRTH2−) T cells or TH2-phenotype (assessed as CD4+CXCR3−CRTH2+).

[6] = system: anti-CD19 CAR T cells; assay: Gene expression analysis (Nanostring Immune V2 panel) after 18 days of serial stimulation; format: cell-based, human; details: 50 nM or 500 nM; day 18 of serial restimulation
Method: as §3
At day 18 after serial stimulation, RNA was isolated from anti-CD19 CAR T cells and Nanostring Immune V2 panel tests were run across 594 genes. The log 2 (fold change) of each gene was plotted against the −log 10(Raw p-value) derived from ANOVA tests of unscaled housekeeping gene normalized to count data for treatment versus control.

[7] = system: CD19+ Nalm-6 disseminated tumor line; assay: Disseminated Nalm-6 tumor xenograft mouse model, ibrutinib by daily oral gavage; format: in vivo, NSG mice
Text: On day zero (0), NSG mice were intravenously injected with 5×10^5 Nalm-6 cells expressing firefly luciferase. […] To permit assessment of the effect of a combination therapy with the inhibitor, a suboptimal dose of anti-CD19 CAR T cells from two different donors (generated by transducing cells derived from samples of human donor subjects essentially as described above) were i.v. injected into each mouse at a concentration of 5×10^5 CAR+ T cells per mouse at day 5. […] Eight (N=8) mice per group were monitored.
Following treatment as described above, tumor growth over time was measured by bioluminescence imaging and the average radiance (p/s/cm^2/sr) was measured. Survival of treated mice also was assessed over time.

[8] = system: CD19+ Nalm-6 disseminated tumor line; assay: Disseminated Nalm-6 tumor xenograft mouse model, ibrutinib in drinking water; format: in vivo, NSG mice
Method: (§4) NSG mice described in Example 2 were intravenously injected on day 0 with 5×10^5 Nalm-6 cells expressing firefly luciferase. […] To permit assessment of the effect of a combination therapy with the inhibitor, a suboptimal dose of anti-CD19 CAR T cells was i.v. injected into the mice at 5×10^5/mouse at day 5. As a control, mice were administered the vehicle control without administration of the CAR-T cells or inhibitor.

[9] = system: CAR+ T cells and Nalm-6 tumor cells; assay: Levels of CAR+ T cells and tumor cells in blood, bone marrow and spleen of Nalm-6 bearing mice; format: in vivo, NSG mice
Method: as §4
Samples were analyzed to assess presence and levels of CAR T cells (based on expression of the surrogate marker using an anti-EGFR antibody) and/or tumor cells at days 7, 12, 19 and 26 post CAR+ T cell transfer.

[10] = system: CAR+ T cells; assay: Ex vivo immunophenotyping (flow cytometry, t-SNE) of CAR+ T cells at day 12 post CAR T transfer; format: in vivo, NSG mice
Method: as §4
Flow cytometry histograms showing the individual expression profiles of CD4, CD8, CD62L, CD45RA, CD44 and CXCR3 from the 4 gated t-SNE in FIG. 8B overlaid on the expression of the total population (shaded) is shown in FIG. 8C.

[11] = system: anti-CD19 CAR-T cells from DLBCL subjects; assay: Serial restimulation and cytolytic function of anti-CD19 CAR-T cells manufactured from DLBCL patients; format: cell-based, human
Text: Cells were subjected to serial restimulation over a 21 day culture period and monitored for cell expansion and cytotoxic activity.

[12] = system: CAR-expressing T cells; assay: RNA-Seq molecular signature of CAR-expressing T cells after 18 days of serial stimulation; format: cell-based, human
Method: RNA isolation was performed using the RNEasy Micro Kit (Qiagen). Samples were sequenced and RNASeq reads were mapped to the human genome (GRCh38) and aligned to the GENCODE release 24 gene model. […] Differentially expressed genes were identified by imposing a log2 fold change cutoff of 0.5 and a Benjamini-Hochberg adjusted false discovery rate (FDR) cutoff of 0.05.

[13] = system: CAR T cells; assay: CD62L expression by flow cytometry after 18 days of serial stimulation; format: cell-based, human; details: donors 2 and 3
Method: as §3

[14] = in vivo; cited from earlier work

C=CC(=O)N1CCC[C@@H](n2nc(-c3ccc(Oc4ccccc4)cc3)c3c(N)ncnc32)C1 [ibrutinib, 1-[(3R)-3-[4-amino-3-(4-phenoxyphenyl)pyrazolo[3,4-d]pyrimidin-1-yl]piperidin-1-yl]prop-2-en-1-one]
cytolytic function of the anti-CD19 CAR T cells ([1]; all concentrations tested (0.5-5000 nM) during the co-culture): did not inhibit | target cell killing ([1]; one donor, P<0.0001): modestly increased target cell killing | cytolytic activity of anti-CD19 CAR-expressing T cells (target cell killing normalized to untreated control, AUC) ([1]; two donors, concentration increased up to 500 nM, E:T 2.5:1, 4 days): did not significantly impact | expression of truncated EGFR surrogate marker, activation markers CD25, CD38, CD39, CD95, CD62L and phenotypic markers CCR7, CD62L, CD45RO ([2]; 5000, 500, 50, 5 and 0.5 nM, 3 donors, up to 4 days): no significant effect | expression levels of CD69, CD107a or PD-1 ([2]; CD4+ or CD8+ cells cultured in the presence of ibrutinib): subtle decrease in expression levels | percentage of anti-CD19 CAR T cells expressing CD69, CD107a or PD-1 ([2]; highest (supraphysiological) concentration tested): subtle decrease in the percentage | phenotype of cells as central memory (TCM) or effector memory (TEM) subsets (CCR7, CD45RA) ([2]; over four days after stimulation): did not affect the phenotype | IFN-γ and IL-2 production ([3]; 50 nM): some increase | cytokine production ([3]; 50 nM, some donors): modestly increased | cytokine concentrations ([3]; physiological concentrations of ibrutinib): did not significantly decrease | cell numbers and population doublings of anti-CD19 CAR T cells [4]: enhanced cell numbers and population doublings | percentage of TH1 cells ([5]; 500 nM, P<0.01): further enhanced | additional CAR T activation or memory markers ([5]; CAR T cells from the serial stimulation assay): No significant effects | percentage of CAR+ T cells with TH1 phenotype ([5]; after serial stimulation, greater with increasing concentrations): increase the percentage | gene expression (594 genes) [6]: did not significantly alter gene expression | survival vs CAR T and vehicle ([7]; greater time points, two donors, ibrutinib with CAR T, p<0.001): significantly increased survival | median survival vs suboptimal anti-CD19 CAR T cell dose + vehicle ([7]; ibrutinib 25 mg/kg qd P.O. with CAR-T cells): increased median survival | tumor growth vs CAR-T cells and vehicle ([7]; ibrutinib 25 mg/kg qd P.O. with suboptimal dose of anti-CD19 CAR T cells, p<0.001, p<0.0001): significantly decreased tumor growth | tumor burden (average radiance) vs vehicle ([7]; ibrutinib alone, 25 mg/kg qd P.O., ibrutinib-resistant model): no effect on tumor burden | tumor growth vs CAR T with vehicle alone ([8]; ibrutinib 25 mg/kg/day in drinking water with CAR T): significantly (P<0.001) decreased tumor growth | median survival vs suboptimal anti-CD19 CAR T cell dose + vehicle ([8]; ibrutinib 25 mg/kg/day in drinking water with anti-CD19 CAR-T cells, p<0.001): increased median survival | tumor cells detected in the blood, bone marrow or spleen vs vehicle alone ([9]; CAR+ cell treatment combined with ibrutinib): significantly fewer tumor cells | circulating CAR+ T cells vs CAR+ T cells and vehicle ([9]; blood, ibrutinib in drinking water): significant increase | number of CAR-T cells in the blood ([9]; day 19 post CAR-T cell transfer, p<0.05): significant increase in the number of cells | population 4 as percentage of CAR-T cells ([10]; bone marrow, day 12, ibrutinib-treated animals): 15.2% | phenotype of CAR+ T cells isolated from bone marrow ([10]; day 12, CAR-T cells with ibrutinib vs control): phenotypic changes were observed | CD8+CD44hi CXCR3hi CD45RAlo CD62Lhi (population 2) and CD4+CD44hi CXCR3int CD45RAhi CD62Lhi (population 4) in bone marrow vs control mice ([10]; day 12 post CAR T transfer): increase | cytolytic activity ([11]; 50 nM, 16 days of serial stimulation, one patient, P<0.01): increase in cytolytic activity | cytolytic function ([11]; 500 nM, 16 days of serial stimulation, each subject): increase in cytolytic function | proliferation of CAR T cells (cell doublings) ([11]; 50 and 500 nM, 21 day culture, both DLBCL patients): did not inhibit the proliferation | gene expression changes ([12]; 50 nM, day 18): not significant, similar trends | expression of HES6, HIC1, LZTFL1, NRIP1, CD38 and RARRES3 ([12]; day 18 serial stimulation): downregulation | expression of MSC ([12]; day 18 serial stimulation): upregulation | expression of SELL/CD62L ([12]; day 18 serial stimulation): increases | expression of granzyme A and CD38 ([12]; day 18 serial stimulation): decreases | CD62L expression [13]: significant increase | Cmax [14]: 227 nM
